Data taken from patent US9259399B2, “Targeting CDK4 and CDK6 in cancer therapy” (Cornell University, priority 2007, dated 2016).
“Also recorded” adds a separate entry of the source. Residues, ends and D or L forms follow the SMILES beside them. *: point of attachment. Cbz = O=C(OCc1ccccc1)*; CH2F = FC*

Assays:
CDK4 and CDK6 [1] = test: Phase I/II clinical trial in multiple myeloma; type: in vivo; conditions: within the tolerable dose in humans; preliminary data
[2] = tested on: myeloma, AML and solid tumor xenograft; conditions: cited from earlier work
[3] = tested on: human osteoclast cultures; test: Osteoclast formation from bone marrow cells of multiple myeloma patients; type: cell-based
Procedure: Non-adherent mononuclear bone marrow cells from multiple myeloma patients were cultured in the presence of macrophage colony stimulating factor (M-CSF) and Receptor Activator for Nuclear Factor κ[…] (RANKL) for three weeks.

HMCLs, including MM1.S = test: BrdU-uptake and DNA content (cell cycle) in human myeloma cell lines; type: cell-based; conditions: for proportion of cells in S phase: PD 0332991 0.25 μM 24 h
Procedure: Cells were incubated with 5-bromo-2-deoxyuridine (BrdU, 5 μg/ml; Sigma) at 37° C. for 30 min (HMCLs) or 16 h (BMM cells). Cells were fixed with 70% ethanol overnight at 4° C., incubated with 0.4 mg/ml pepsin for 20 min at room temperature and 2N HCl for 10 min at 37° C. Samples were washed with 50 mM sodium borate (pH 8.5) and then 0.1% BSA/PBS. To detect BrdU, cells were incubated with a FITC-conjugated anti-BrdU mouse mAb (Roche Diagnostics, Pleasanton, Calif.) for 30 min at room temperature. For DNA content analysis, cells were incubated further with 50 μg/ml propidium iodide and 100 U/ml ribonuclease A (Sigma) for 30 min at 37° C. Samples were analyzed by flow cytometry.

[4] = tested on: MM1.S and MM1.R human myeloma cell lines; test: Cytotoxic killing of myeloma cell lines (viability, mitochondrial membrane depolarization)
CDK4 and CDK6 [5] = conditions: cited from earlier work
[6] = tested on: primary CD138+ human BM myeloma (BMM) cells; test: Killing of primary myeloma cells co-cultured with HS-5 stromal cells; conditions: for reduction of live BMM cells: 24 hours ex vivo, PD 0332991 1-2 μM
[7] = tested on: at least thirty-eight other types of kinases, including CDK2; conditions: at concentrations below 5 μM, at least 38 other kinases; cited from earlier work
[8] = tested on: retinoblastoma (Rb)-positive tumor cells; conditions: cited from earlier work
[9] = tested on: CAG NOD/SCID myeloma model; conditions: 150 mg/kg; by day 9; cited from earlier work
Luc+GFP+MM1.S cells = test: NOD/SCID xenograft human myeloma model (bioluminescence imaging); type: in vivo, NOD/SCID mice; conditions: for MMD in human myeloma cells vs mouse BM cells in vivo: bortezomib 0.25 mg/kg, with or without PD 0332991 150 mg/kg pretreatment; for tumor development (BLI): day 8, PD 0332991 150 mg/kg daily 3 days, bortezomib 0.25 mg/kg days 4 and 7
CDK4/6 = conditions: mantle cell lymphoma and acute myeloid leukemia cells ex vivo; cited from earlier work
MM1.S cells = test: Apoptosis pathway in myeloma cells (caspase/PARP cleavage, Bcl-2 family mRNA and protein, Smac release); type: cell-based, human
Procedure: Total RNA was isolated using the TRIzol reagent (Invitrogen). […] Reactions were carried out in triplicate in the ABI PRISM 7900 HT Sequence Detection System. The relative amount of products was determined by the comparative Ct method according to the manufacturer's instructions. Viable cells were obtained by Ficoll density centrifugation (GE Healthcare, Piscataway, N.J.). Cytosolic and mitochondrial fractions were isolated as described (Yang et al., 1997). Whole cells or purified mitochondria were lysed in a buffer containing 10 mM Tris-HCl, pH 7.5, 150 mM NaCl, 5 mM EDTA, 1% Triton X-100, and protease inhibitors. For detection of phosphorylated Stat3, cells were lysed in a buffer containing 20 mM Tris, pH 7.5, 150 mM NaCl, 1 mM EDTA, 1 mM EGTA, 1% Triton X-100, 2.5 mM sodium pyrophosphate, 1 mM β-glycerophosphate, 1 mM Na3VO4, and protease inhibitors. Immunoblotting was performed as described in Huang et al. (2004). Signals were developed with the SuperSignal West Femto Maximum Sensitivity Substrate (Pierce Biotechnology, Rockford, Ill.). For immunoprecipitation, lysate (50 μg of protein) was precleared with 20 μl of Protein G PLUS-agarose beads (Santa Cruz Biotechnology, Santa Cruz, Calif.) and incubated with rabbit anti-Bim, anti Bcl-XL (Cell signaling Technology), anti-Mcl1 (Santa Cruz), anti-Bak (Sigma) or mouse anti-Bcl-2 (DakoCytomation, Carpinteria, Calif.) overnight at 4° C. The immunocomplexes were collected by incubation with Protein G PLUS-agarose beads (Santa Cruz) and centrifugation. These immunocomplex samples were then analyzed by immunoblotting.

IL-6Rα, gp130, Stat3 = test: IL-6 signaling in myeloma cells (surface IL-6Rα, gp130, p-Stat3); type: cell-based, human; conditions: for expression of surface IL-6Rα (gp80): PD 0332991 0.25 μM, bortezomib 4 nM; for surface gp130: PD 0332991, bortezomib 4 nM, or both
Procedure: Viable cells were obtained by Ficoll density centrifugation (GE Healthcare, Piscataway, N.J.). Cytosolic and mitochondrial fractions were isolated as described (Yang et al., 1997). Whole cells or purified mitochondria were lysed in a buffer containing 10 mM Tris-HCl, pH 7.5, 150 mM NaCl, 5 mM EDTA, 1% Triton X-100, and protease inhibitors. For detection of phosphorylated Stat3, cells were lysed in a buffer containing 20 mM Tris, pH 7.5, 150 mM NaCl, 1 mM EDTA, 1 mM EGTA, 1% Triton X-100, 2.5 mM sodium pyrophosphate, 1 mM β-glycerophosphate, 1 mM Na3VO4, and protease inhibitors. Immunoblotting was performed as described in Huang et al. (2004). Signals were developed with the SuperSignal West Femto Maximum Sensitivity Substrate (Pierce Biotechnology, Rockford, Ill.).

CC(=O)c1c(C)c2cnc(Nc3ccc(N4CCNCC4)cn3)nc2n(C2CCCC2)c1=O [PD 0332991, 6-acetyl-8-cyclopentyl-5-methyl-2-[5-piperazin-1-yl-pyridin-2-ylamino)-8H-pyrido[2,3-d]pyrimidin-7-one]
inhibition of CDK4 and CDK6 and tumor cell division in patients (CDK4 and CDK6 [1]): completely inhibits
myeloma tumor growth upon discontinuation ([2]; after discontinuation of PD 0332991): resumed upon discontinuation
tumor growth ([2]; myeloma, AML and solid tumor xenograft models): suppressed tumor growth
IC50 ([3]; Homo sapiens, Osteoclast, 504 h, treatment for 3 weeks): 50 nM
time course of treatment on osteoclast formation ([3]; first week, but not second or third week): sufficient to inhibit osteoclast formation
time G1 arrest and synchronous S phase entry were maintained in the absence of apoptosis (HMCLs, including MM1.S; MM1.S cells cultured with PD 0332991): at least 6 days
G1 arrest (HMCLs, including MM1.S; PD 0332991 0.25 μM): complete G1 arrest; also recorded: marked accumulation of G1 cells
proportion of cells in S phase (HMCLs, including MM1.S; 12 hours after removal): 65%
proportion of cells in S phase (HMCLs, including MM1.S; 18 hours after removal): 67%
killing of Dex-resistant MM1.R cells by low dose bortezomib after PD 0332991 ([4]; MM1.R cells, 24 hours): virtual eradication of cells
bortezomib killing after prior G1 arrest ([4]; PD 0332991 24 h, then bortezomib at high dose (250 nM) for 1 h, analysed 6 h later): profoundly enhanced
killing by low dose bortezomib added after PD 0332991 vs concurrently ([4]; bortezomib 2-6 nM added 24 or 48 hours after PD 0332991): greater
MMD and viability, bortezomib added upon removal of PD 0332991 vs unsynchronized cells ([4]; bortezomib 4 or 6 nM, continuous): greater MMD and loss of viability
bortezomib killing during synchronous G1-S transition ([4]; bortezomib pulse at 4 hours post PD 0332991 removal): augmented further
MMD and cytotoxic killing by low dose dexamethasone after G1 arrest ([4]; dexamethasone 5-50 nM): augmented
IC50 (CDK4 and CDK6 [5]; freshly isolated primary human BMM cells and HMCLs ex vivo, read-out: IC50, inhibition of CDK4 and CDK6): 60 nM
cell cycle outcome of CDK4/CDK6 inhibition (CDK4 and CDK6 [5]; primary BMM cells and HMCLs): exclusive G1 arrest unaccompanied by apoptosis; also recorded: exclusive G1 arrest in the absence of apoptosis
reduction of live BMM cells [6]: greater
sensitization of BMM cells from bortezomib-refractory patients (MM10) ([6]; PD 0332991 pretreatment 4 hours): sufficient to sensitize
sensitization of other bortezomib-refractory BMM cells (MM 8, MM 9) ([6]; PD 0332991 pretreatment 24 hours): susceptible to bortezomib killing
bortezomib killing after PD 0332991 pretreatment ([6]; pretreatment 4-24 hours): markedly augmented
activity against other kinases [7]: does not cross react; also recorded: little or no activity
anti-proliferative activity [8]: potent anti-proliferative agent
tumor burden [9]: reduced tumor burden profoundly
MMD in human myeloma cells vs mouse BM cells in vivo (Luc+GFP+MM1.S cells): augmented
tumor development (BLI) (Luc+GFP+MM1.S cells): only modestly reduced
inhibition of CDK4/6 (CDK4/6): effectively inhibited
activation of caspase-8 by bortezomib after prior PD 0332991 treatment (MM1.S cells): similarly augmented
Noxa mRNA and protein (MM1.S cells; following PD 0332991-induced G1 arrest): no longer detectable
Stat3 protein (IL-6Rα, gp130, Stat3): reduction of Stat3 protein
expression of surface IL-6Rα (gp80) (IL-6Rα, gp130, Stat3): virtually eliminated
surface gp130 (IL-6Rα, gp130, Stat3): only modestly

COC(=O)C[C@H](NC(=O)[C@H](C)NC(=O)[C@@H](NC(=O)OCc1ccccc1)C(C)C)C(=O)CF [ZVAD-FMK] (Cbz-Val-Ala-Asp(OMe)-CH2F)
killing by PD-B in the presence of pan-caspase inhibitor (MM1.S cells): completely inhibited

CC(C)C[C@H](NC(=O)[C@H](Cc1ccccc1)NC(=O)c1cnccn1)B(O)O [bortezomib]
cell cycle effect of bortezomib alone (HMCLs, including MM1.S; bortezomib 6 nM alone): striking loss of cells in the S phase
reduction of live BMM cells [6]: greater
MMD in human myeloma cells vs mouse BM cells in vivo (Luc+GFP+MM1.S cells): differentially induced
tumor development (BLI) (Luc+GFP+MM1.S cells): only modestly reduced
TRAIL mRNA (MM1.S cells; q-RT-PCR): marginal increase
Bim and MCL-1 mRNAs (MM1.S cells; q-RT-PCR, bortezomib 4 nM 12 h, with or without PD 0332991 0.25 μM 24 h): coordinately elevated
expression of surface IL-6Rα (gp80) (IL-6Rα, gp130, Stat3): did not vary
surface gp130 (IL-6Rα, gp130, Stat3): only modestly
